# According to US9376424B2, “Methods for treating post traumatic stress disorder” (AZEVAN PHARMACEUTICALS, INC., priority 2010, dated 2016):
# Key:
# human V1a receptor = molecular target: T1, human V1a receptor (Homo sapiens, UniProt P37288); assay: Human vasopressin V1a receptor binding assay (3H-AVP competition, hV1a cell line); details: CHO cells expressing human V1a, 1 nM 3H-AVP; for Ki: read-out: V1a Ki; for IC50: read-out: V1a Binding Affinity IC50
# T1 construct: host or cells: CHO cells
# T1 sequence (P37288 whole entry): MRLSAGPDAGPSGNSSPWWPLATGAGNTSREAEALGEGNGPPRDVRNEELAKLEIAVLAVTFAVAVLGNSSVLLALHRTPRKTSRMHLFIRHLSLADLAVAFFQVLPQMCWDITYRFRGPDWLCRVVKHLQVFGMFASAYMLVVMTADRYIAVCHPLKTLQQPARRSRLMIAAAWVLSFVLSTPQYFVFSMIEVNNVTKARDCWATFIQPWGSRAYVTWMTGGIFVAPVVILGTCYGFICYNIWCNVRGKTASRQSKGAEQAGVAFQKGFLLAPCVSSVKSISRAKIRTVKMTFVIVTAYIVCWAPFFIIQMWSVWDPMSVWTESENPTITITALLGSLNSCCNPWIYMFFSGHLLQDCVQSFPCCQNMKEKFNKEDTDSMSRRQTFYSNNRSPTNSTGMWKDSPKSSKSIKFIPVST
# Method: Human vasopression V1a receptor binding assay. A cell line expressing the human V1a receptor in CHO cells (henceforth referred to as the hV1a cell line) was obtained from Dr. Michael Brownstein, NIMH, Bethesda, Md., USA. The hV1a cDNA sequence is described by Thibonnier et al., Journal of Biological Chemistry, 269, 3304-3310 (1994), and the expression method was the same as described by Morel et al. (1992). The hV1a cell line was grown in alpha-MEM with 10% fetal bovine serum and 250 ug/ml G418 (Gibco, Grand Island, N.Y., USA). For competitive binding assay, hV1a cells were plated into 6-well culture plate at 1:10 dilution from a confluency flask, and maintained in culture for at least two days. Culture medium was then removed, cells were washed with 2 ml binding buffer (25 mM Hepes, 0.25% BSA, 1×DMEM, PH=7.0). To each well, 990 μl binding buffer containing 1 nM 3H-AVP was added, and followed by 10 μl series diluted Example compounds dissolved in DMSO. […] 100 nM cold AVP (Sigma) was used to assess non-specific binding. Cells were incubated for 45 minutes at 37° C., assay mixture was removed and each well was washed three times with PBS (pH=7.4). 1 ml 2% SDS was added per well and plates were let sit for 30 minutes. The whole content in a well was transferred to a scintillation vial. Each well was rinsed with 0.5 ml PBS which was then added to the corresponding vial. Scintillation fluid (Ecoscint, National Diagnostics, Atlanta, Ga.) was then added at 3 ml per vial. Samples were counted in a liquid scintillation counter (Beckman LS3801). IC50 values were calculated by Prism Curve fitting software.
# All of the alkanedioic esters and amides exemplified in the foregoing examples dissolved in DMSO were tested in this assay. Binding curves were generated according to methods described by Thibonnier et al. (1994). [^3H]-AVP was added to the hV1a cell cultures followed by 10-fold dilutions of each test compound.
# C57B1/6J males = assay: Social Interaction Test after chronic social subjugation; type: in vivo, mouse; details: for Distance (traveled in the interaction zone, difference score Post-Pretest) / Time (in the interaction zone, difference score Post-Pretest): mice after 10 day defeat, daily i.p. for 28 days, AVN246-HCl 2 mg/kg, chlordiazepoxide 10 mg/kg
# Excerpt: Mouse Chronic Subordination Model of Depression. Social stress is a factor in the etiology of several psychopathologies, with individuals differing in vulnerability. Adult male mice are subjected to a model of chronic psychosocial stress in which resident/intruder dyads live chronically in sensory contact and physically interact on a daily basis.
# Anti-depressant Effect in the Social Interaction Test. […] A rapid subjugation paradigm in mice lead to diminished social interaction behavior, where the dependent measures are distance traveled and time in the Interaction Zone. […] These observations are consistent with the subordination/social interaction model as a rapid behavioral screen for potential antidepressants. Additional details are described in Berton et al. (2006).
# Briefly, C57B1/6J males were defeated daily for 10 days by resident, highly aggressive CF-1 males. After 5 minutes of direct exposure, a perforated plastic partition was inserted into the cage that allowed olfactory and visual contact without physical defeat for the remaining 23 hr 55 min each day. The C57 males were exposed to a different resident male in a different cage each day to increase the stress of the procedure (it was observed that all CF-1 males attacked the intruder each day). At the end of the 10 day defeat procedure, the C57 males were tested in an open field apparatus during the dark phase. A dominant male was caged in an area of the open field apparatus termed the “social interaction zone.” Time and distance traveled in the zone were recorded. The C57 males were then divided randomly among the following treatments: AVN246-HCl (2 mg/kg), saline vehicle (0.45%), or chlordiazepoxide (10 mg/kg). Treatments were given daily (i.p.) for 28 days and the animals were retested. Behavioral changes were determined by calculating difference scores (Post-Pretest) and these scores were analyzed.
Structure (SMILES),Ki (human V1a receptor) [nM],IC50 (human V1a receptor) [nM],further results
O=C(NCc1ccccc1C(F)(F)F)[C@H](CCC(=O)N1CCN(C2CCCCC2)CC1)N1C(=O)[C@@H](N2C(=O)OC[C@@H]2c2ccccc2)[C@H]1/C=C/c1ccccc1 [Example 182],0.93,,
O=C(NCc1cccc(Cl)c1Cl)[C@H](CCC(=O)N1CCN(C2CCCCC2)CC1)N1C(=O)[C@@H](N2C(=O)OC[C@@H]2c2ccccc2)[C@H]1/C=C/c1ccccc1 [Example 176],0.38,,
"CC(C(=O)NCc1cccc(C(F)(F)F)c1)(C(=O)N1CCC(N2CCCCC2)CC1)N1C(=O)[C@@H](N2C(=O)OC[C@@H]2c2ccccc2)[C@H]1/C=C/c1ccccc1 (mixture of isomers) [Example 234, (2RS)-[4-(piperidinyl)piperidinylcarbonyl]-2-methyl-2-[3(S)-(4(S)-phenyloxazolidin-2-on-3-yl)-4(R)-(2-styryl)azetidin-2-on-1-yl]acetic acid N-(3-trifluoromethylbenzyl)amide]",1.45,2.37,
O=C(N[C@@H]1CCCc2ccccc21)[C@H](CCC(=O)N1CCN(C2CCCCC2)CC1)N1C(=O)[C@@H](N2C(=O)OC[C@@H]2c2ccccc2)[C@H]1/C=C/c1cccs1 [Example 255],1.2,1.9,
"CNC1=Nc2ccc(Cl)cc2C(c2ccccc2)=[N+]([O-])C1 [CDP, chlordiazepoxide]",,,"Distance (traveled in the interaction zone, difference score Post-Pretest) (C57B1/6J males): 1.0 ± 5; Time (in the interaction zone, difference score Post-Pretest) (C57B1/6J males): 0.0 ± 5^"
O=C(NC1CCc2ccccc21)C(CCC(=O)N1CCN(C2CCCCC2)CC1)N1C(=O)C(N2C(=O)OCC2c2ccccc2)C1C=Cc1ccccc1 (mixture of isomers) [Example 216],1.12,1.83,
O=C(NCc1cc(C(F)(F)F)cc(C(F)(F)F)c1)[C@H](CCC(=O)N1CCN(C2CCCCC2)CC1)N1C(=O)[C@@H](N2C(=O)OC[C@@H]2c2ccccc2)[C@H]1/C=C/c1ccccc1 [Example 188],4.45,,
O=C(NCc1cccc(C(F)(F)F)c1)[C@H](CCC(=O)N1CCC(CN2CCCCC2)CC1)N1C(=O)[C@@H](N2C(=O)OC[C@@H]2c2ccccc2)[C@H]1/C=C/c1ccccc1 [Example 120E],1.95,3.2,
O=C(CCC(C(=O)NCc1cccc(C(F)(F)F)c1)N1C(=O)C(N2C(=O)OCC2c2ccccc2)C1C=Cc1ccccc1)NCCN1CCCCC1 (stereo not shown) [Example 87],,15,
O=C(NCc1cc(F)cc(C(F)(F)F)c1)[C@H](CCC(=O)N1CCN(C2CCCCC2)CC1)N1C(=O)[C@@H](N2C(=O)OC[C@@H]2c2ccccc2)[C@H]1/C=C/c1ccccc1 [Example 179],0.51,,
O=C(NCc1cc(C(F)(F)F)ccc1F)[C@H](CCC(=O)N1CCN(C2CCCCC2)CC1)N1C(=O)[C@@H](N2C(=O)OC[C@@H]2c2ccccc2)[C@H]1/C=C/c1ccccc1 [Example 177],0.41,,
O=C(NCc1cccc(Cl)c1)[C@H](CCC(=O)N1CCN(C2CCCCC2)CC1)N1C(=O)[C@@H](N2C(=O)OC[C@@H]2c2ccccc2)[C@H]1/C=C/c1ccccc1 [Example 187],0.66,,
CC(NC(=O)C(CC(=O)N1CCC(N2CCCCC2)CC1)N1C(=O)C(N2C(=O)OCC2c2ccccc2)C1C=Cc1ccccc1)c1ccccc1.Cl (stereo not shown) [AVN246-HCl],,,"Distance (traveled in the interaction zone, difference score Post-Pretest) (C57B1/6J males): 22 ± 6; Time (in the interaction zone, difference score Post-Pretest) (C57B1/6J males): 35 ± 10; effect on deficits in social interaction produced by chronic subordination (C57B1/6J males; mice, 28-day treatment regimen): significantly increased both distance traveled and time in the interaction zone"
C[C@@H](NC(=O)[C@@H](CC(=O)N1CCC(N2CCCCC2)CC1)N1C(=O)[C@@H](N2C(=O)OC[C@@H]2c2cccc(Cl)c2)[C@H]1/C=C/c1ccccc1)c1ccccc1 [Example 256],1.7,2.8,
O=C(C(COCc1ccccc1)N1C(=O)C(N2C(=O)OCC2c2ccccc2)C1C=Cc1ccccc1)N1CCC(CN2CCCCC2)CC1 (stereo not shown) [Example 233A],11.6,,
O=C(NCc1cccc(C(F)(F)F)c1)[C@H](CCC(=O)N1CCN(C2CCCCC2)CC1)N1C(=O)[C@@H](N2C(=O)OC[C@@H]2c2ccccc2)[C@H]1/C=C/c1ccccc1 [Example 120H],1.68,2.75,
O=C(N[C@@H]1CCCc2ccccc21)[C@H](CCC(=O)N1CCN(C2CCCCC2)CC1)N1C(=O)[C@@H](N2C(=O)OC[C@@H]2c2ccccc2)[C@H]1/C=C/c1ccco1 [Example 254],6.2,10,
CCCCN(Cc1ccccc1)C(=O)[C@H](CCC(=O)N1CCN(C2CCCCC2)CC1)N1C(=O)[C@@H](N2C(=O)OC[C@@H]2c2ccccc2)[C@H]1/C=C/c1ccccc1 [Example 198],,~100,
CN(Cc1cccc(C(F)(F)F)c1)C(=O)[C@@H](CC(=O)N1CCC(N2CCCCC2)CC1)N1C(=O)[C@@H](N2C(=O)OC[C@@H]2c2ccccc2)[C@H]1/C=C/c1cccc(Cl)c1 [Example 247],0.39,0.6,
O=C(NCc1cccc(C(F)(F)F)c1)C(CC(=O)N1CCN(CCN2CCCC2)CC1)N1C(=O)C(N2C(=O)OCC2c2ccccc2)C1C=Cc1ccccc1 (stereo not shown) [Example 78],,< 100,
O=C(NCc1cccc(C(F)(F)F)c1F)[C@H](CCC(=O)N1CCN(C2CCCCC2)CC1)N1C(=O)[C@@H](N2C(=O)OC[C@@H]2c2ccccc2)[C@H]1/C=C/c1ccccc1 [Example 180],0.2,,
O=C(NCc1cc(Cl)cc(Cl)c1)[C@H](CCC(=O)N1CCN(C2CCCCC2)CC1)N1C(=O)[C@@H](N2C(=O)OC[C@@H]2c2ccccc2)[C@H]1/C=C/c1ccccc1 [Example 185],0.82,1.27,
